# Assay results published in US7977355B2, “N-(2-hydroxyethyl)-N-methyl-4-(quinolin-8-yl(1-(thiazol-4-ylmethyl)piperidin-4-ylidene)methyl” (Astrazeneca AB, priority 2006, dated 2011).
# Key:
# [1] = Thermodynamic solubility; type: physicochemical; conditions: aqueous buffer, thermodynamic from solid, 25° C., 100 mM phosphate buffer at pH 7.4
# Text: An aliqout of the saturated solution was then taken and its concentration measured by liquid chromatography/tandem mass spectrometry (LC/MS/MS). LC/MS/MS experimental conditions and instrumental parameters are described in detail in the LC/MS/MS section.
# [2] = Log D (shake-flask); type: physicochemical; conditions: octanol/buffer
# Protocol: The determination of log D was based on the shake-flask principle. The compound(s) of the present invention was slurried in an octanol-saturated buffer solution and sonicated to promote dissolution. The solution was filtered to remove any insoluble. After an initial sample was taken, the solution volume is adjusted to 10 ml, and a known volume of buffer-saturated octanol is added. The two-phase solution is mixed, then separated by centrifugation. A second sample from the bottom layer (aqueous layer) was then taken. Both samples, which represented the solution concentrations of the compound before and after addition of octanol, were determined by LC/MS/MS. The determined concentrations were used to calculated the log D value.
smiles,measurement,setting,value
"CN(CCO)C(=O)c1ccc(C(=C2CCN(Cc3cscn3)CC2)c2cccc3cccnc23)cc1 [compound of the invention, N-(2-hydroxyethyl)-N-methyl-4-(quinolin-8-yl(1-(thiazol-4-ylmethyl)piperidin-4-ylidene)methyl)benzamide]",solubility at 24 h,[1],> 500 µM
same,logD,[2],1.6
